Measured values taken from patent publication US6323203A, “Composition and method for treating diabetes” (Beyer; Camille F., priority 2000, dated 2001).
Read-outs that look alike come from different tables or passages of the source.

What was measured:
[1] = in vivo; cited from earlier work
[2] = Single-blind, three-phase crossover study of single oral doses: blood analyses of metabolic, hormonal and electrolyte parameters in 8 normal male subjects; format: in vivo, human; settings: for Free fatty acids, mean / Angiotensin I, mean / Renin, mean / C-peptide, mean / Potassium, mean / Uric acid, mean / Aldosterone, mean / Insulin, mean / Urea, mean / VLDL Cholesterol, mean / Norepinephrine, mean / HDL Cholesterol, mean / Glucose, mean / Triglycerides, mean / LDL Cholesterol, mean / Total cholesterol, mean / Fibrinogen, mean: 8 normal subjects; for Free fatty acids, mean: 0 h: PZG 0.47, PZA 0.51; for Angiotensin I, mean: 0 h: PZG 0.84, PZA 0.66; for Renin, mean: 0 h: PZG 1.0, PZA 1.5; for C-peptide, mean: 0 h: PZG 1.1, PZA 1.2; for Potassium, mean: 0 h: PZG 4.2, PZA 4.0; for Uric acid, mean: 0 h: PZG 6.0, PZA 5.6; for Aldosterone, mean: 0 h: PZG 8.6, PZA 13.6; for Insulin, mean: 0 h: PZG 8.8, PZA 5.4; for Urea, mean: 0 h: PZG 17, PZA 17; for VLDL Cholesterol, mean: 0 h: PZG 20, PZA 17; for Norepinephrine, mean: 0 h: PZG 37, PZA 75; for HDL Cholesterol, mean: 0 h: PZG 41, PZA 46; for Glucose, mean: 0 h: PZG 87, PZA 84; for Triglycerides, mean: 0 h: PZG 101, PZA 86; for LDL Cholesterol, mean: 0 h: PZG 107, PZA 104; for Total cholesterol, mean: 0 h: PZG 168, PZA 167; for Fibrinogen, mean: 0 h: PZG 266, PZA 293
Protocol: A three-phase study, where single oral doses of placebo, followed in one week by 900 mg of pyrazinoylguanidine (PZG), followed in three weeks by 300 mg of pyrazinoic acid (PZA), involving normal male subjects, was carried out to compare and contrast metabolic effects of single doses of PZG and PZA. A purpose of the study was to determine whether the metalbolic effects observed after 3 and also 21 days of PZG administration in patients with renal disease or with diabetes also occurred after a single oral dose. […]
(§1) Eight male nonsmoking subjects aged 24-32 participated. They were normal by history, physical exam and routine laboratory analysis of blood and urine.
(§2) This was a single-blind, three-phase crossover study beginning after a 10-hour fast at 8 a.m., designated time 0 (control), when the first venipuncture occurred. In phase I, three capsules of lactose were given orally, followed by venipunctures 2 and 4 h later. In phase II, 1 week later, after a control blood specimen drawn at 8 a.m., PZG (900 mg) was given orally and blood specimens taken 2 and 4 h thereafter. In phase III, 3 weeks later, after a control blood specimen drawn at 8 a.m., PZA (300 mg) was given orally and blood specimens taken 2 and 4 h later.
(§3) Each phase consisted of taking three capsules, each containing 300 mg. In phase I, all three capsules were of lactose; in phase II, all three were PZG; and in phase III, two capsules were lactose and one PZA. All capsules appeared indistinguishable and were given to each subject who swallowed them with water in the presence of an investigator.
(§4) Once obtained, blood specimens were immediately spun. Refrigerated serum or plasma was analyzed within 24 h for glucose, insulin, electrolytes, blood urea nitrogen, creatinine, liver function tests, triglycerides, total cholesterol, high-density lipoprotein (HDL) cholesterol, low-density lipoprotein (LDL) cholesterol, very-low-density lipoprotein (VLDL) cholesterol, free fatty acids, and fibrinogen.
Repeated measures of analysis of variance were used to compare each subject's placebo, PZG and PZA phase. Two-tailed Student t-tests were performed between groups. All results are reported as means ±SD. Statistical significance was considered when p<0.05. The results are illustrated in Tables 1-4.

[3] = Serum concentration of PZG or PZA after single oral dose in the crossover study; format: in vivo; settings: human, 300 mg
Protocol: as §1, §2, §3, §4

[4] = system: cutaneous vasomotor reaction of blush area; test: Cutaneous vasomotor response (and tolerability) after a single oral dose in 8 male volunteers; format: in vivo, human; set-up: key to Cutaneous vasomotor response, Score (0-6), Mean: graded 0 = not observed to 6 = most severe reaction
Protocol: as §1, §2
(§5) Comparisons of mean serum or plasma concentrations ±SD during placebo, PZG and PZA phases are presented in Table 1 for glucose, insulin, C-peptide, free fatty acids and norepinephrine. Comparisons of mean serum or plasma concentrations ±SD during these three phases are presented in Table 2 for triglycerides, VLDL, LDL, HDL, total cholesterol, fibrinogen and serum PZG and PZA concentrations. Note the close agreement of serum PZG and PZA concentrations at 2 h and also at 4 h after their administration. Table 3 compares mean serum or plasma concentrations ±SD of renin, angiotensin I, adlosterone, potassium, urea and uric acid during the three phases of the study. […] In an earlier pilot experiment to determine serum PZA concentrations following different PZA doses, a first subject ([…]) after a single oral dose of 300 mg PZA developed unexpectedly a typical cutaneous vasomotor reaction of their blush area which included flushed, warm skin of face, neck and shoulders with a mild rash for about 90 min. […] They described the reaction variously as warm redness or flushed head and neck, rash and itching (Table 4). These reactions, which were graded from 6 (most severe) to 0 (not observed), lasted from 30 min in 3 subjects to 4 h in 1 subject. […] No significant correlation occurred between score of reaction (effect+duration) and PZA peak blood concentration among the subjects (r=0.281) (Table 4).
(§6) ^1 Score = warm + redness (flush) + rash + itching + duration. Duration
(§7) as 0.5 h, 1, 2, 4 h (reaction and duration as noted).

[5] = system: cutaneous vasomotor reaction of blush area; test: Exploratory (pilot) study: serum concentrations and cutaneous vasomotor reaction after different oral PZA doses in two subjects; format: in vivo, human
Protocol: as §5, §6, §7

[6] = as above; format: in vivo, human; settings: human, serum, po, exploratory study; for concentration at 1 h: read-out: Serum PZG, 1 h; for concentration at 2 h: read-out: Serum PZG, 2 h
Protocol: as §5, §6, §7

[7] = 2 h after single oral dose (PZG 900 mg, PZA 300 mg)
[8] = 4 h after single oral dose (PZG 900 mg, PZA 300 mg)

Compound: O=C(O)c1cnccn1 [PZA, pyrazinoic acid]
- effect on serum triglycerides [1]: lower serum triglycerides
- effect on uric acid blood concentrations [1]: increase uric acid blood concentrations
- effect on mean values for serum glucose, insulin, C-peptide, triglycerides and free fatty acids ([2]; 0, 2 and 4 hours after administration): decreased
- Free fatty acids, mean [2, 7]: 0.10 meq/l
- Angiotensin I, mean [2, 7]: 0.75 ng/ml per h
- Renin, mean [2, 7]: 1.7 ng/ml per h
- C-peptide, mean [2, 7]: 1.0 ng/mL
- Potassium, mean [2, 7]: 4.6 meg/l
- Uric acid, mean [2, 7]: 6.3 mg/dL
- Aldosterone, mean [2, 7]: 12.3 ng/dL
- Insulin, mean [2, 7]: 3.7 μlU/ml
- Urea, mean [2, 7]: 17 mg/dL
- VLDL Cholesterol, mean [2, 7]: 15 mg/dL
- Norepinephrine, mean [2, 7]: 61 pg/mL
- HDL Cholesterol, mean [2, 7]: 41 mg/dL
- Glucose, mean [2, 7]: 85 mg/dL
- Triglycerides, mean [2, 7]: 77 mg/dL
- LDL Cholesterol, mean [2, 7]: 126 mg/dL
- Total cholesterol, mean [2, 7]: 179 mg/dL
- Fibrinogen, mean [2, 7]: 278 mg/dL
- Free fatty acids, mean [2, 8]: 0.09 meq/l
- Angiotensin I, mean [2, 8]: 0.73 ng/ml per h
- Renin, mean [2, 8]: 2.1 ng/ml per h
- C-peptide, mean [2, 8]: 0.7 ng/mL
- Potassium, mean [2, 8]: 4.3 meg/l
- Uric acid, mean [2, 8]: 6.2 mg/dL
- Aldosterone, mean [2, 8]: 12.5 ng/dL
- Insulin, mean [2, 8]: 3.7 μlU/ml
- Urea, mean [2, 8]: 16 mg/dL
- VLDL Cholesterol, mean [2, 8]: 14 mg/dL
- Norepinephrine, mean [2, 8]: 67 pg/mL
- HDL Cholesterol, mean [2, 8]: 45 mg/dL
- Glucose, mean [2, 8]: 80 mg/dL
- Triglycerides, mean [2, 8]: 69 mg/dL
- LDL Cholesterol, mean [2, 8]: 109 mg/dL
- Total cholesterol, mean [2, 8]: 168 mg/dL
- Fibrinogen, mean [2, 8]: 278 mg/dL
- effect on plasma concentrations of nonesterified fatty acids ([2]; PZA (Table 1)): reduce
- effect on insulin, C-peptide, free fatty acids and triglyceride serum concentrations ([2]; at equivalent plasma concentrations of PZG and PZA): reduced
- effect on LDL, HDL and total cholesterol ([2]; single oral dose, within 4 h): not altered systematically
- effect on potassium blood concentrations ([2]; single oral dose, within 4 h): not changed
- effect on uric acid plasma concentration ([2]; single oral dose, within 4 h): increased
- effect on very-low-density lipoprotein (VLDL) ([2]; single oral dose, within 4 h): decreased
- effect on plasma norepinephrine ([2]; single oral dose, not statistically significant): did not elevate
- concentration at 2 h ([3]; 2 h after single oral dose (PZG 900 mg, PZA 300 mg), 8 normal subjects, read-out: Serum concentration of PZG or PZA, mean): 5000 ng/mL
- concentration at 4 h ([3]; 4 h after single oral dose (PZG 900 mg, PZA 300 mg), 8 normal subjects): 3000 ng/mL
- concentration at 2 h ([3]; single 300-mg dose of PZA, individual subjects one, read-out: PZA 2-hour serum conc): 5600 ng/mL
- concentration at 2 h ([3]; single 300-mg dose of PZA, mean of 8 male volunteers, read-out: PZA 2-hour serum conc, Mean): 4960 ng/mL
- onset of cutaneous reaction relative to peak serum concentration ([4]; 300 mg PZA): the onset preceded peak serum PZA concentrations
- subjects that responded with a cutaneous vasomotor reaction ([4]; 300 mg PZA): 7 of 8
- seriousness of cutaneous vasomotor reactions ([4]; 300 mg PZA, 8 subjects): None of the cutaneous vasomotor reactions was serious enough to interfere with participation in the study
- subjects without cutaneous vasomotor reaction ([4]; 300 mg PZA, 8 subjects): One subject among the 8 had no reaction
- duration of cutaneous vasomotor reaction (longest) ([4]; 300 mg PZA, in 1 subject): 4 h
- duration of cutaneous vasomotor reaction (shortest) ([4]; 300 mg PZA, in 3 subjects): 30 min
- effect on blush area ([4]; PZA): transiently stimulate
- Cutaneous vasomotor response, Score (0-6), Mean ([4]; single 300-mg dose of PZA, mean of 8 male volunteers): 3.25
- Cutaneous vasomotor response, Score (0-6), exploratory study ([5]; subject two, single oral dose 600 mg): 0
- cutaneous vasomotor reaction ([5]; subject two, single oral dose of 600 mg PZA): no cutaneous vasomotor reaction
- Cutaneous vasomotor response, Score (0-6), exploratory study ([5]; subject, single oral dose 300 mg): 6
- duration of cutaneous vasomotor reaction ([5]; subject, single oral dose of 300 mg PZA, face, neck and shoulders with mild rash): about 90 min
- half-life ([6]; subject two, 600 mg): 5 h
- concentration at 1 h ([6]; subject two, 600 mg): 10200 ng/mL
- concentration at 2 h ([6]; subject two, 600 mg): 12000 ng/mL
- half-life ([6]; subject, 300 mg): 3 h
- concentration at 1 h ([6]; subject, 300 mg): 6200 ng/mL
- concentration at 2 h ([6]; subject, 300 mg): 4800 ng/mL
